# From patent US20240382471A1, “GLUCAGON-LIKE PEPTIDE-1 RECEPTOR MODULATORS AND USES THEREOF” (HEPAGENE THERAPEUTICS (HK) LIMITED, priority 2021, published 2024)
# Molecular target: GLP1R (Homo sapiens, UniProt P43220)
# Assay: GLP1R cAMP assay (HTRF cAMP detection, agonist activity)
# Type: cell-based
# Set-up: host or cells: Flp-In-293
# Conditions: Flp-In-293-GLP1R cells, 30 min at 37° C., read-out: EC50 (nM) Assay 1
# Protocol: GLP1R-mediated agonist activity was determined with a cell-based functional assay utilizing an HTRF (Homogeneous Time-Resolved Fluorescene) cAMP detection kit that measures CAMP levels in the cell. Reagents and equipment used in the assay are listed below, followed by the protocol.
# • 1) Cell Line: Flp-In-293-GLP1R (constructed by Pharmaron Beijing Co., Ltd) • 2) Complete Medium: DMEM+10% FBS+1×Penicillin-Streptomycin+200 μg/mL HB • 3) Assay Buffer: 1×HBSS+20 mM HEPES+0.1% BSA+500 μM IBMX
# • a) Seed Flpin-293-GLP1R cells at 20,000 cells/well into 384 well assay plate (6007680-50, PE) using complete medium. • b) Prepare 4×compound working solution with assay buffer. • c) Add 5 μL 4×compound working solution into cell plate, incubate 30 min at 37° C. • d) Dilute Eu-cAMP tracer (1/50) with lysis buffer and add 10 μl/well to assay plate. • e) Dilute Ulight-anti-cAMP (1/150) with lysis buffer and add 10 μl/well to assay plate. • f) Incubate 1 h at RT. • g) Read the plate at wavelengths of 665 nm and 615 nm on Envision 2105 plate reader.
# • 3.1% Activity is calculated as follow:
# % Activity=100−(Signalcmpd−SignalAve_PC)/(SignalAve_VC−SignalAve_PC)×100. • 3.2 Calculate EC50 and Plot effect-dose curve of cmpds:
# Y=Bottom+(Top−Bottom)/(1+10^((Log EC50−X)*Hill Slope)) • X: log of agonist concentration; Y: % Activity.
# Sequence of GLP1R (P43220 24-463, species assumed): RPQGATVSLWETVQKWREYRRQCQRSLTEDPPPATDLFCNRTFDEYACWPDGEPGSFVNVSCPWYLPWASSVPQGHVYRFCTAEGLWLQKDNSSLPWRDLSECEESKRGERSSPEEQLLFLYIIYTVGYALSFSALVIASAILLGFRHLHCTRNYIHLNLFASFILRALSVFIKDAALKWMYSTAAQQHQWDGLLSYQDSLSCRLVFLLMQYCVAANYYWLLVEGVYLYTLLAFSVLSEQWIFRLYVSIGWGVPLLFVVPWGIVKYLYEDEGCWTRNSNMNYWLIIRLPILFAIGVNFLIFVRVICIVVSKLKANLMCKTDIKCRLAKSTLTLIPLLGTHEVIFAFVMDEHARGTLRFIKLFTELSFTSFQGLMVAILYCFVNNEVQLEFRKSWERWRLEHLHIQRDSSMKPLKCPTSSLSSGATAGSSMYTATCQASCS
row,EC50,SMILES
1,1.84 nM,"N#Cc1ccc(COc2cccc(N3CC4CN(Cc5nc6ccc(C(=O)O)cc6n5C[C@@H]5CCO5)CC4C3)n2)c(F)c1 (stereo partly drawn) [Compound 2-20, 2-[(5-{6-[(4-cyano-2-fluorophenyl)methoxy]pyridin-2-yl}-hexahydropyrrolo[3,4-c]pyrrol-2-yl)methyl]-3-[(2S)-oxetan-2-ylmethyl]-1,3-benzodiazole-5-carboxylic acid]"
2,0.079 nM,"N#Cc1ccc(COc2ccnc(C34CCN(Cc5nc6ccc(C(=O)O)cc6n5C[C@@H]5CCO5)CC3C4)n2)c(F)c1 (stereo partly drawn) [Compound 1-11, 2-((6-(4-((4-cyano-2-fluorobenzyl)oxy)pyrimidin-2-yl)-3-azabicyclo[4.1.0]heptan-3-yl)methyl)-1-(((S)-oxetan-2-yl)methyl)-1H-benzo[d]imidazole-6-carboxylic acid]"
3,0.003 nM,"COc1cc(C#N)ccc1COc1cccc(C23CCN(Cc4nc5ccc(C(=O)O)cc5n4C[C@@H]4CCO4)CC2C3)n1 (stereo partly drawn) [Compound 1-6, 2-((6-(6-((4-cyano-2-methoxybenzyl)oxy)pyridin-2-yl)-3-azabicyclo[4.1.0]heptan-3-yl)methyl)-1-(((S)-oxetan-2-yl)methyl)-1H-benzo[d]imidazole-6-carboxylic acid]"
4,0.017 nM,"N#Cc1ccc(COc2ccnc(C34CCN(Cc5nc6ccc(C(=O)O)cc6n5C[C@@H]5CCO5)CC3C4)n2)c(F)c1 (single isomer, unassigned) [Compound 1-11-B]"
5,> 4 nM,"N#Cc1ccc(COc2cccc(N3CC4CN(Cc5nc6ccc(C(=O)O)cc6n5CC5CCO5)CC4C3)n2)c(F)c1 (stereo not shown) [Compound 2-21, 2-[(5-{6-[(4-cyano-2-fluorophenyl)methoxy]pyridin-2-yl}-hexahydropyrrolo[3,4-c]pyrrol-2-yl)methyl]-3-(oxetan-2-ylmethyl)-1,3-benzodiazole-5-carboxylic acid]"
6,0.458 nM,"N#Cc1ccc(COc2cccc(N3C4CCC3CN(Cc3nc5ccc(C(=O)O)cc5n3C[C@@H]3CCO3)C4)n2)cc1 [Compound 2-38, 2-((8-(6-((4-cyanobenzyl)oxy)pyridin-2-yl)-3,8-diazabicyclo[3.2.1]octan-3-yl)methyl)-1-(((S)-oxetan-2-yl)methyl)-1H-benzo[d]imidazole-6-carboxylic acid]"
7,0.995 nM,"N#Cc1ccc(COc2ccnc(C34CCN(Cc5nc6ccc(C(=O)O)cc6n5C[C@@H]5CCO5)CC3C4)n2)c(F)c1 (single isomer, unassigned) [Compound 1-11-A]"
8,2 nM,"N#Cc1ccc(COc2cccc(N3CC4CN(Cc5nc6ccc(C(=O)O)cc6n5C[C@@H]5CCO5)CC4C3)n2)cc1 (stereo partly drawn) [Compound 2-22, 2-((5-(6-((4-cyanobenzyl)oxy)pyridin-2-yl)hexahydropyrrolo[3,4-c]pyrrol-2 (1H)-yl)methyl)-1-(((S)-oxetan-2-yl)methyl)-1H-benzo[d]imidazole-6-carboxylic acid]"
9,0.643 nM,"O=C(O)c1ccc2nc(CN3C4CCC3CN(c3cccc(OCc5ccc(Cl)cc5F)n3)C4)n(C[C@@H]3CCO3)c2c1 [Compound 2-6, 2-[(3-{6-[(4-chloro-2-fluorophenyl)methoxy]pyridin-2-yl}-3,8-diazabicyclo[3.2.1]octan-8-yl)methyl]-3-[(2S)-oxetan-2-ylmethyl]-1,3-benzodiazole-5-carboxylic acid]"
10,> 4 nM,"N#Cc1ccc(COc2cccc(N3C4CCC3CN(Cc3nc5ccc(C(=O)O)cc5n3CC3CCOC3)C4)n2)c(F)c1 (stereo not shown) [Compound 2-33, 2-[(8-{6-[(4-cyano-2-fluorophenyl)methoxy]pyridin-2-yl}-3,8-diazabicyclo[3.2.1]octan-3-yl)methyl]-3-(oxolan-3-ylmethyl)-1,3-benzodiazole-5-carboxylic acid]"
11,1.7 nM,"N#Cc1ccc(COc2cccc(N3CC4CN(Cc5nc6ccc(C(=O)O)cc6n5Cc5cocn5)CC4C3)n2)c(F)c1 (stereo not shown) [Compound 2-25, 2-[(5-{6-[(4-cyano-2-fluorophenyl)methoxy]pyridin-2-yl}-hexahydropyrrolo[3,4-c]pyrrol-2-yl)methyl]-3-(1,3-oxazol-4-ylmethyl)-1,3-benzodiazole-5-carboxylic acid]"
12,> 4 nM,"O=C(O)c1ccc2nc(CN3C4CCC3CN(c3cccc(OCc5ccc(C(F)(F)F)cc5F)n3)C4)n(C[C@@H]3CCO3)c2c1 [Compound 2-15, 2-((−3-(6-((2-fluoro-4-(trifluoromethyl)benzyl)oxy)pyridin-2-yl)-3,8-diazabicyclo[3.2.1]octan-8-yl)methyl)-1-(((S)-oxetan-2-yl)methyl)-1H-benzo[d]imidazole-6-carboxylic acid]"
13,> 4 nM,"O=C(O)c1ccc2nc(CN3CC4CCC(C3)N4c3cccc(OCc4ccccc4F)n3)n(C[C@@H]3CCO3)c2c1 [Compound 2-36, 2-((−8-(6-((2-fluorobenzyl)oxy)pyridin-2-yl)-3,8-diazabicyclo[3.2.1]octan-3-yl)methyl)-1-(((S)-oxetan-2-yl)methyl)-1H-benzo[d]imidazole-6-carboxylic acid]"
14,1.22 nM,"N#Cc1ccc(COc2cccc(N3CC4CCC(C3)N4Cc3nc4ccc(C(=O)O)cc4n3C[C@@H]3CCO3)n2)c(F)c1 [Compound 2, 2-((−3-(6-((4-cyano-2-fluorobenzyl)oxy)pyridin-2-yl)-3,8-diazabicyclo[3.2.1]octan-8-yl)methyl)-1-(((S)-oxetan-2-yl)methyl)-1H-benzo[d]imidazole-6-carboxylic acid]"
15,> 4 nM,"CS(=O)(=O)NC(=O)c1ccc2nc(CN3CC4CCC(C3)N4c3cccc(OCc4ccc(C#N)cc4F)n3)n(C[C@@H]3CCO3)c2c1 [Compound 2-42, 2-((−8-(6-((4-cyano-2-fluorobenzyl)oxy)pyridin-2-yl)-3,8-diazabicyclo[3.2.1]octan-3-yl)methyl)-N-(methylsulfonyl)-1-(((S)-oxetan-2-yl)methyl)-1H-benzo[d]imidazole-6-carboxamide]"
16,> 4 nM,"O=C(O)c1ccc2nc(CN3CC4CCC(C3)N4c3cccc(OCc4ccncc4)n3)n(C[C@@H]3CCO3)c2c1 [Compound 2-41, 3-[(2S)-oxetan-2-ylmethyl]-2-({8-[6-(pyridin-4-ylmethoxy)pyridin-2-yl]-3,8-diazabicyclo[3.2.1]octan-3-yl}methyl)-1,3-benzodiazole-5-carboxylic acid]"
17,> 4 nM,"O=C(O)c1ccc2nc(CN3C4CCC3CN(c3cccnc3OCc3ccc(Cl)cc3F)C4)n(C[C@@H]3CCO3)c2c1 [Compound 2-17, 2-[(3-{2-[(4-chloro-2-fluorophenyl)methoxy]pyridin-3-yl}-3,8-diazabicyclo[3.2.1]octan-8-yl)methyl]-3-[(2S)-oxetan-2-ylmethyl]-1,3-benzodiazole-5-carboxylic acid]"
18,> 4 nM,"Cc1ccc(COc2cccc(N3CC4CCC(C3)N4Cc3nc4ccc(C(=O)O)cc4n3C[C@@H]3CCO3)n2)c(F)c1 [Compound 2-8, 2-[(3-{6-[(2-fluoro-4-methylphenyl)methoxy]pyridin-2-yl}-3,8-diazabicyclo[3.2.1]octan-8-yl)methyl]-3-[(2S)-oxetan-2-ylmethyl]-1,3-benzodiazole-5-carboxylic acid]"
19,> 4 nM,"CS(=O)(=O)c1ccc(COc2cccc(N3CC4CCC(C3)N4Cc3nc4ccc(C(=O)O)cc4n3C[C@@H]3CCO3)n2)cc1 [Compound 2-14, 2-((−3-(6-((4-(methylsulfonyl)benzyl)oxy)pyridin-2-yl)-3,8-diazabicyclo[3.2.1]octan-8-yl)methyl)-1-(((S)-oxetan-2-yl)methyl)-1H-benzo[d]imidazole-6-carboxylic acid]"
20,> 4 nM,"N#Cc1ccc(COc2cccc(N3CC4CCC(C3)N4Cc3nc4ccc(C(=O)O)cc4n3C[C@@H]3CCCO3)n2)c(F)c1 [Compound 2-10, 2-((−3-(6-((4-cyano-2-fluorobenzyl)oxy)pyridin-2-yl)-3,8-diazabicyclo[3.2.1]octan-8-yl)methyl)-1-(((S)-tetrahydrofuran-2-yl)methyl)-1H-benzo[d]imidazole-6-carboxylic acid]"
21,3.05 nM,"N#Cc1ccc(COc2cccc(N3CC4CN(Cc5nc6ccc(C(=O)O)cc6n5CC5CCOC5)CC4C3)n2)c(F)c1 (stereo not shown) [Compound 2-24, 2-[(5-{6-[(4-cyano-2-fluorophenyl)methoxy]pyridin-2-yl}-hexahydropyrrolo[3,4-c]pyrrol-2-yl)methyl]-3-(oxolan-3-ylmethyl)-1,3-benzodiazole-5-carboxylic acid]"
22,> 4 nM,"O=C(O)c1ccc2nc(CN3CC4CCC(C3)N4c3cccc(OCc4ccncc4F)n3)n(C[C@@H]3CCO3)c2c1 [Compound 2-40, 2-((−8-(6-((3-fluoropyridin-4-yl)methoxy)pyridin-2-yl)-3,8-diazabicyclo[3.2.1]octan-3-yl)methyl)-1-(((S)-oxetan-2-yl)methyl)-1H-benzo[d]imidazole-6-carboxylic acid]"
